Laboratory results from patent US9890111B2, “Crystal structure of bifunctional transglycosylase PBP1b from E. coli and inhibitors thereof” (Academia Sinica, priority 2008, dated 2018).
In brackets after ≈: the same amount, converted by molar mass.

Molecular target: T1, penicillin-binding protein 1b from E. coli (transglycosylase) (Escherichia coli, UniProt P02919)
T1 construct: PBP1b[58-804] was amplified from E. coli genomic DNA and cloned into the expression vector pET15b; His6 (N, cleaved yes); made in house; host or cells: E. coli BL21(DE3)
T1 sequence (P02919 58-804): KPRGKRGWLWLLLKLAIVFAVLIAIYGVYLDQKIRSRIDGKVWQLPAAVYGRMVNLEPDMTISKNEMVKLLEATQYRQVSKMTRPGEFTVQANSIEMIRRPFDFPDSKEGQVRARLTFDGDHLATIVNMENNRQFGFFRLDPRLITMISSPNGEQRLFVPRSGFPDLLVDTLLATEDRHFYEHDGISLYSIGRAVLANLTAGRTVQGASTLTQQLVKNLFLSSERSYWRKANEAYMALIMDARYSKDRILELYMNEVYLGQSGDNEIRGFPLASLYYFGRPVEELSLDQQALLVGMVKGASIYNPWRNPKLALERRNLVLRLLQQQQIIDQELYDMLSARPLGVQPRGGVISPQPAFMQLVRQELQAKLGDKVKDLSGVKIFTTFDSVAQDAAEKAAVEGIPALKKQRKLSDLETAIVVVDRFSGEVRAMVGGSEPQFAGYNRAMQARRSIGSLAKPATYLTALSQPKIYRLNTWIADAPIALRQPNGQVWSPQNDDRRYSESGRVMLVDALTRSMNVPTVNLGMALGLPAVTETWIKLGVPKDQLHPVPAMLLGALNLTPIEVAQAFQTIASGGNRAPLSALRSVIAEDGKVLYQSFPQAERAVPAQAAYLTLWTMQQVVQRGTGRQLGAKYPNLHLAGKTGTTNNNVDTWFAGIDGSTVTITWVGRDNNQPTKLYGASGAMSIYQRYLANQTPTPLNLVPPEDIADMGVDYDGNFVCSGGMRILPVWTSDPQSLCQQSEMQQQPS
Experiment: Lipid II polymerization / transglycosylase (TG) activity assay
Assay type: biochemical
Conditions: 25 μM compound; TG activity remaining (0% = full inhibition)
Procedure: Lipid II polymerization assays were carried out by incubating 100 μM fluorophore-labeled lipid II and penicillin-binding protein 1b from E. coli in tubes containing 10 ng/μL N-acetyl muramidase in 50 mM Tris.HCl (pH 8.0), 10 mM MgCl2, 0.1% Triton X-100, 10% DMSO, and 15% MeOH for 30 minutes (Van Nieuwenhze et al. J Am Chem Soc 2002, 124, 3656.). The fluorophore can be dansyl chloride, NBD, BODIPY, fluorescein. Reaction supernatants were then injected onto an anion-exchange HPLC column (SAX1, Supelco Co.) and eluted with a linear gradient of ammonium acetate (20 mM to 0.5 M) in methanol. The eluant was monitored for fluorescence with λex=466 nm and λem=535 nm.
Purified protein was concentrated in 20 mM Tris-HCl (pH 8.0), 300 mM NaCl, and 1 mM DDM. Instead of using Dansyl lipid II, 6-(N-(7-nitrobenz-2-oxa-1,3-diazol-4-yl)amino) hexanoyl (NBD)-labeled Lipid II was prepared as described (Taubes G (2008) Science 321:356-361; Payne D J (2008) Science 321:1644-1645) and used as a substrate to measure TG enzymatic activity, with approach similar to what has been described previously (Holtje J V (1998) Microbiol Mol Biol Rev 62:181-203). Assays were carried out by using the following condition: NBD-Lipid II, 20 nM protein, 50 mM Tris HCl (pH 8.0), 10 mMCaCl2, 0.085% decyl PEG (Anatrace), and 15% MeOH at 37° C. for 0, 1, 3, 5, 7, 9, 20, and 30 min. The concentration of NBD-Lipid II was varied from 1 to 100 μM to determine the rate of the TG activity. After the reaction, 200 μM moenomycin was added to stop the reaction, and 13 μM muramidase (Sigma-Aldrich) was added to digest the TG products to result in NBD-Lipid II without lipid tails. The fluorescent signal decrease of substrate and increase of NBD-Lipid II without lipid tails were detected by anion-exchange column SAX1 (Supelco) on HPLC (Hitachi). The elution procedures was a linear gradient of ammonium acetate (20 mM to 1 M) in MeOH monitored at λexcitation=466 nm and λemission=535 nm. The kinetic parameter was estimated by following the Michaelis-Menten equation. To investigate the importance of transmembrane (TM) helix, PBP1b and PBP1bΔTM (residues Met-1 to Leu-87 were removed) were extracted with the buffer containing 20 mM Tris-HCl (pH 8.0), 300 mM NaCl, and 13 mM FOS-CHOLINE-14 (Anatrace). The protein was purified by nickel chelation chromatography in the presence of 1 mM DDM. The activity assay was carried out by using the following condition: 12 μM NBD-Lipid II, 20 nM protein, 50 mM Tris-HCl (pH 8.0), 10 mM CaCl2, 0.085% decyl PEG, and 15% MeOH at 37° C. for time 0, 1, 3, 5, 7, 9, 20, and 30 min. The initial velocity was used to compare the activity of full-length PBP1b and PBP1bΔTM.

Structure (SMILES) | TG Activity at various concentration of cmpd: 25 μM
Cc1ccc(C(C)C)cc1Oc1ccc(Cl)cc1NC(=O)c1cc(Cl)cc(Br)c1O [Compound 121] | 90%

Same assay, conditions: 50 μM compound; TG activity remaining (0% = full inhibition)

Structure (SMILES) | TG Activity at various concentration of cmpd: 50 μM
O=C(Nc1cc(Cl)cc(C(=O)c2ccc(Cl)cc2)c1Cl)c1cc(Br)cc(Br)c1O [Compound 115] | 100%
O=C(Nc1cc(Cl)cc(C(=O)c2ccccc2)c1Cl)c1cc(Br)cc(Br)c1O [Compound 116] | 100%
O=C(Nc1cc(Cl)cc(C(=O)c2ccc(Cl)cc2)c1Cl)c1cc(Cl)cc(Br)c1O [Compound 117] | 100%
Cc1ccc(C(C)C)cc1Oc1ccc(Cl)cc1NC(=O)c1cc(Cl)cc(Br)c1O [Compound 121] | 0%
O=C(Nc1ccc(Oc2ccc(Cl)cc2)c(Cl)c1)c1cc(Br)cc(Br)c1O [Compound 122] | 60%
O=C(c1ccc(Cl)cc1)c1cc(NC(=O)c2cc(Cl)cc(Br)c2O)c(Cl)cc1Cl [Compound 123] | 60%
O=C(c1ccccc1)c1cc(NC(=O)c2cc(Br)cc(Br)c2O)ccc1Cl [Compound 124] | 100%
O=C(Nc1cc(Cl)ccc1O)c1ccc(Cl)c(C(=O)c2ccc(Cl)cc2)c1 [Compound 126] | 100%

Same assay, conditions: 100 μM compound; TG activity remaining (0% = full inhibition)

Structure (SMILES) | TG Activity at various concentration of cmpd: 100 μM
O=C(Nc1cc(Cl)cc(C(=O)c2ccc(Cl)cc2)c1Cl)c1cc(Br)cc(Br)c1O [Compound 115] | 0%
O=C(Nc1cc(Cl)cc(C(=O)c2ccccc2)c1Cl)c1cc(Br)cc(Br)c1O [Compound 116] | 0%
O=C(Nc1cc(Cl)cc(C(=O)c2ccc(Cl)cc2)c1Cl)c1cc(Cl)cc(Br)c1O [Compound 117] | 0%
Cc1ccc(C(C)C)cc1Oc1ccc(Cl)cc1NC(=O)c1cc(Cl)cc(Br)c1O [Compound 121] | 0%
O=C(Nc1ccc(Oc2ccc(Cl)cc2)c(Cl)c1)c1cc(Br)cc(Br)c1O [Compound 122] | 0%
O=C(c1ccc(Cl)cc1)c1cc(NC(=O)c2cc(Cl)cc(Br)c2O)c(Cl)cc1Cl [Compound 123] | 0%
O=C(c1ccccc1)c1cc(NC(=O)c2cc(Br)cc(Br)c2O)ccc1Cl [Compound 124] | 0%
O=C(Nc1cc(Cl)ccc1O)c1ccc(Cl)c(C(=O)c2ccc(Cl)cc2)c1 [Compound 126] | 100%

Tested on: Staphylococcus aureus (ATCC29213, SA)
Experiment: Minimal inhibitory concentration (MIC), SA
Assay type: cell-based
Conditions: Staphylococcus aureus ATCC29213
Procedure: (§1) The minimal inhibitory concentration (MIC) of tested compounds was determined following the NCCLS standard. The experiments were conducted in 96-well microtiter plates using two-fold dilutions in Muller-Hilton broth with (Streptococcus pneumonia) or without blood (Bacillus subtilis, Enterococcus faecalis, Staphylococcus aureus, Escherichia coli, MRSA, Actinetobacter baumannii, Pseudomonas aeruginosa, Stenotrophomonas maltophilia, and Mycobacterium smegmatis). Exponentially growing cells at 5×10^5 cells/ml were incubated with test compounds at various concentrations. After an 18 h to 24 h incubation at 37° C., MIC was determined as the minimal concentration of the compound that prevents bacterial growth.

Structure (SMILES) | MIC SA
O=C(Nc1cc(Cl)cc(C(=O)c2ccc(Cl)cc2)c1Cl)c1cc(Br)cc(Br)c1O [Compound 115] | 0.5 µg/mL (≈ 0.864 µM)
O=C(Nc1cc(Cl)cc(C(=O)c2ccccc2)c1Cl)c1cc(Br)cc(Br)c1O [Compound 116] | 1 µg/mL (≈ 1.84 µM)
O=C(Nc1cc(Cl)cc(C(=O)c2ccc(Cl)cc2)c1Cl)c1cc(Cl)cc(Br)c1O [Compound 117] | 0.5 µg/mL (≈ 0.936 µM)
Cc1ccc(C(C)C)cc1Oc1ccc(Cl)cc1NC(=O)c1cc(Cl)cc(Br)c1O [Compound 121] | 0.25 µg/mL (≈ 0.491 µM)
O=C(Nc1ccc(Oc2ccc(Cl)cc2)c(Cl)c1)c1cc(Br)cc(Br)c1O [Compound 122] | 0.5 µg/mL (≈ 0.94 µM)
O=C(c1ccc(Cl)cc1)c1cc(NC(=O)c2cc(Cl)cc(Br)c2O)c(Cl)cc1Cl [Compound 123] | 0.25 µg/mL (≈ 0.468 µM)
O=C(c1ccccc1)c1cc(NC(=O)c2cc(Br)cc(Br)c2O)ccc1Cl [Compound 124] | 1 µg/mL (≈ 1.96 µM)
O=C(Nc1cc(Cl)ccc1O)c1ccc(Cl)c(C(=O)c2ccc(Cl)cc2)c1 [Compound 126] | 1 µg/mL (≈ 2.38 µM)

Tested on: methicillin-resistant Staphylococcus aureus (ATCC33592, MRSA)
Experiment: Minimal inhibitory concentration (MIC), MRSA
Assay type: cell-based
Conditions: methicillin-resistant Staphylococcus aureus ATCC33592
Procedure: as §1

Structure (SMILES) | MIC MRSA
O=C(Nc1cc(Cl)cc(C(=O)c2ccc(Cl)cc2)c1Cl)c1cc(Br)cc(Br)c1O [Compound 115] | 2 µg/mL (≈ 3.46 µM)
O=C(Nc1cc(Cl)cc(C(=O)c2ccccc2)c1Cl)c1cc(Br)cc(Br)c1O [Compound 116] | 8 µg/mL (≈ 14.7 µM)
O=C(Nc1cc(Cl)cc(C(=O)c2ccc(Cl)cc2)c1Cl)c1cc(Cl)cc(Br)c1O [Compound 117] | 0.5 µg/mL (≈ 0.936 µM)
Cc1ccc(C(C)C)cc1Oc1ccc(Cl)cc1NC(=O)c1cc(Cl)cc(Br)c1O [Compound 121] | 0.125 µg/mL (≈ 0.245 µM)
O=C(Nc1ccc(Oc2ccc(Cl)cc2)c(Cl)c1)c1cc(Br)cc(Br)c1O [Compound 122] | 0.25 µg/mL (≈ 0.47 µM)
O=C(c1ccc(Cl)cc1)c1cc(NC(=O)c2cc(Cl)cc(Br)c2O)c(Cl)cc1Cl [Compound 123] | 0.25 µg/mL (≈ 0.468 µM)
O=C(c1ccccc1)c1cc(NC(=O)c2cc(Br)cc(Br)c2O)ccc1Cl [Compound 124] | 1 µg/mL (≈ 1.96 µM)
O=C(Nc1cc(Cl)ccc1O)c1ccc(Cl)c(C(=O)c2ccc(Cl)cc2)c1 [Compound 126] | 0.125 µg/mL (≈ 0.297 µM)

Tested on: Mycobacterium smegmatis (ATCC11565, MS)
Experiment: Minimal inhibitory concentration (MIC), MS
Assay type: cell-based
Conditions: Mycobacterium smegmatis ATCC11565
Procedure: as §1

Structure (SMILES) | MIC MS
O=C(Nc1cc(Cl)cc(C(=O)c2ccc(Cl)cc2)c1Cl)c1cc(Br)cc(Br)c1O [Compound 115] | 0.25 µg/mL (≈ 0.432 µM)
O=C(Nc1cc(Cl)cc(C(=O)c2ccccc2)c1Cl)c1cc(Br)cc(Br)c1O [Compound 116] | 0.5 µg/mL (≈ 0.919 µM)
O=C(Nc1cc(Cl)cc(C(=O)c2ccc(Cl)cc2)c1Cl)c1cc(Cl)cc(Br)c1O [Compound 117] | 0.25 µg/mL (≈ 0.468 µM)
Cc1ccc(C(C)C)cc1Oc1ccc(Cl)cc1NC(=O)c1cc(Cl)cc(Br)c1O [Compound 121] | 0.25 µg/mL (≈ 0.491 µM)
O=C(Nc1ccc(Oc2ccc(Cl)cc2)c(Cl)c1)c1cc(Br)cc(Br)c1O [Compound 122] | 0.125 µg/mL (≈ 0.235 µM)
O=C(c1ccc(Cl)cc1)c1cc(NC(=O)c2cc(Cl)cc(Br)c2O)c(Cl)cc1Cl [Compound 123] | 0.06 µg/mL (≈ 0.112 µM)
O=C(c1ccccc1)c1cc(NC(=O)c2cc(Br)cc(Br)c2O)ccc1Cl [Compound 124] | 1 µg/mL (≈ 1.96 µM)
O=C(Nc1cc(Cl)ccc1O)c1ccc(Cl)c(C(=O)c2ccc(Cl)cc2)c1 [Compound 126] | 0.06 µg/mL (≈ 0.143 µM)

Tested on: Escherichia coli (ATCC 25922, EC)
Experiment: Minimal inhibitory concentration (MIC), EC
Assay type: cell-based
Conditions: Escherichia coli ATCC 25922
Procedure: as §1

Structure (SMILES) | MIC EC
O=C(Nc1cc(Cl)cc(C(=O)c2ccc(Cl)cc2)c1Cl)c1cc(Br)cc(Br)c1O [Compound 115] | >256 µg/mL
O=C(Nc1cc(Cl)cc(C(=O)c2ccccc2)c1Cl)c1cc(Br)cc(Br)c1O [Compound 116] | >256 µg/mL
O=C(Nc1cc(Cl)cc(C(=O)c2ccc(Cl)cc2)c1Cl)c1cc(Cl)cc(Br)c1O [Compound 117] | >256 µg/mL
Cc1ccc(C(C)C)cc1Oc1ccc(Cl)cc1NC(=O)c1cc(Cl)cc(Br)c1O [Compound 121] | >256 µg/mL
O=C(Nc1ccc(Oc2ccc(Cl)cc2)c(Cl)c1)c1cc(Br)cc(Br)c1O [Compound 122] | >256 µg/mL
O=C(c1ccc(Cl)cc1)c1cc(NC(=O)c2cc(Cl)cc(Br)c2O)c(Cl)cc1Cl [Compound 123] | >256 µg/mL
O=C(c1ccccc1)c1cc(NC(=O)c2cc(Br)cc(Br)c2O)ccc1Cl [Compound 124] | >256 µg/mL
O=C(Nc1cc(Cl)ccc1O)c1ccc(Cl)c(C(=O)c2ccc(Cl)cc2)c1 [Compound 126] | >256 µg/mL
